In patent publication US9221809B2 (MERCK SHARP & DOHME CORP., priority 2011, dated 2015):
Like-named read-outs stand apart in the source and are kept apart here.

Biological target: IRAK4 (Homo sapiens (Human), UniProt Q9NWZ3)
Assay: IRAK4 kinase activity, IMAP fluorescence polarization assay
Assay type: biochemical
Conditions: 100 μM ATP
Method in brief: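 Fluorescence polarization (IMAP nanoparticle binding of phosphopeptide) reports activity after a 30 min, 25 °C reaction. Conditions: 100 μM ATP, 0.5 nM GST-IRAK4, 100 nM fluorescent peptide, 10 mM Tris pH 7.2, 1 mM MgCl2, 1 mM DTT, 0.01% Tween 20.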

[1] = 0.5 nM GST tagged IRAK4, read-out: IRAK4 IC50

Chain of IRAK4 (Q9NWZ3 whole entry): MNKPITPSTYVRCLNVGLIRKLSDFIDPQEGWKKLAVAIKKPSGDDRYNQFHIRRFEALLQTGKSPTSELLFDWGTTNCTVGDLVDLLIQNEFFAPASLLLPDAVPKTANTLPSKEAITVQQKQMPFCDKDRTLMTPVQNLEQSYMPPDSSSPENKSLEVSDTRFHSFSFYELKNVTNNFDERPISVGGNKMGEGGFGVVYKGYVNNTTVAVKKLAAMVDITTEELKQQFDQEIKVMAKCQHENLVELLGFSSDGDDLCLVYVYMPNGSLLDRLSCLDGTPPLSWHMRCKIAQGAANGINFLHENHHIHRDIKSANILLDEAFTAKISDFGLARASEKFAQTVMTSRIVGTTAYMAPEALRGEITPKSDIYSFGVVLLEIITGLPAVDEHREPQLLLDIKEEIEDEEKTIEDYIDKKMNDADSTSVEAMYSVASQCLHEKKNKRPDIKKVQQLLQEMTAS

| Structure (SMILES) | IC50 (read-out: IC50) | IC50 [1] |
| --- | --- | --- |
| O=C(O)C1CN(c2nc(N[C@@H]3CCCNC3)c(-c3nc4ccccc4s3)c(=O)[nH]2)CCO1 (stereo partly drawn) [Example 320, 4-[5-(1,3-benzothiazol-2-yl)-6-oxo-4-[[(3R)-piperidin-3-yl]amino]-1,6-dihydropyrimidin-2-yl]morpholine-2-carboxylic acid] | 250 nM | – |
| CCOC(=O)C1CN(c2nc(N[C@@H]3CCCNC3)c(-c3nc4ccccc4s3)c(=O)[nH]2)CCO1 (stereo partly drawn) [Example 321, ethyl 4-[5-(1,3-benzothiazol-2-yl)-6-oxo-4-[[(3R)-piperidin-3-yl]amino]-1,6-dihydropyrimidin-2-yl]morpholine-2-carboxylate; trifluoroacetic acid] | 180 nM | – |
| CN1CCC2(CCN(c3nc(N[C@@H]4CCCNC4)c(-c4nc5ccccc5s4)c(=O)[nH]3)C2)C1 (stereo partly drawn) [Example 325, 5-(1,3-benzothiazol-2-yl)-2-[7-methyl-2,7-diazaspiro[4.4]nonan-2-yl]-6-[[(3R)-piperidin-3-yl]amino]-3,4-dihydropyrimidin-4-one] | 24 nM | – |
| CC(=O)N1CCC2(CCN(c3nc(N[C@@H]4CCCNC4)c(-c4nc5ccccc5s4)c(=O)[nH]3)C2)C1 (stereo partly drawn) [Example 326, 2-[7-acetyl-2,7-diazaspiro[4.4]nonan-2-yl]-5-(1,3-benzothiazol-2-yl)-6-[[(3R)-piperidin-3-yl]amino]-3,4-dihydropyrimidin-4-one] | 13 nM | – |
| CC(=O)NC1CCN(c2nc(N[C@@H]3CCCNC3)c(-c3nc4ccccc4s3)c(=O)[nH]2)CC1 [Example 333, N-[1-[5-(1,3-benzothiazol-2-yl)-6-oxo-4-[[(3R)-piperidin-3-yl]amino]-1,6-dihydropyrimidin-2-yl]piperidin-4-yl]acetamide trifluoroacetic acid] | 94 nM | – |
| O=c1[nH]c(N2CCOCC2)nc(N[C@@H]2CCCNC2)c1-c1nc2cc(C(F)(F)F)ccc2s1 [Example 337, 2-(morpholin-4-yl)-6-[[(3R)-piperidin-3-yl]amino]-5-[5-(trifluoromethyl)-1,3-benzothiazol-2-yl]-3,4-dihydropyrimidin-4-one] | – | 70 nM |
| O=c1[nH]c(N2CCOCC2)nc(N[C@@H]2CCCNC2)c1-c1nc2cccc(C(F)(F)F)c2s1 [Example 338, (R)-2-morpholino-6-(piperidin-3-ylamino)-5-(7-(trifluoromethyl)benzo[d]thiazol-2-yl)pyrimidin-4(3H)-one] | – | 520 nM |
| Cc1cccc2nc(-c3c(N[C@@H]4CCCNC4)nc(N4CCOCC4)[nH]c3=O)sc12 [Example 340, (R)-5-(7-methylbenzo[d]thiazol-2-yl)-2-morpholino-6-(piperidin-3-ylamino)pyrimidin-4(3H)-one] | – | 580 nM |
| CC(C)(C)c1ccc2sc(-c3c(N[C@@H]4CCCNC4)nc(N4CCOCC4)[nH]c3=O)nc2c1 [Example 342, (R)-5-(5-tert-butylbenzo[d]thiazol-2-yl)-2-morpholino-6-(piperidin-3-ylamino)pyrimidin-4(3H)-one] | – | 1300 nM |
| O=c1[nH]c(N2CCOCC2)nc(N[C@@H]2CCCNC2)c1-c1nc2cccc(C3CC3)c2s1 [Example 344, 5-(7-cyclopropyl-1,3-benzothiazol-2-yl)-2-(morpholin-4-yl)-6-[[(3R)-piperidin-3-yl]amino]-3,4-dihydropyrimidin-4-one trifluoroacetic acid] | – | 4500 nM |
| O=c1[nH]c(N2CCOCC2)nc(N[C@@H]2CCCNC2)c1-c1nc2cc(C3CC3)ccc2s1 [Example 346, 5-(5-cyclopropyl-1,3-benzothiazol-2-yl)-2-(morpholin-4-yl)-6-[[(3R)-piperidin-3-yl]amino]-3,4-dihydropyrimidin-4-one trifluoroacetic acid] | – | 330 nM |
| NC(=O)c1ccc2sc(-c3c(N[C@@H]4CCCNC4)nc(N4CCOCC4)[nH]c3=O)nc2c1 [Example 347, (R)-2-(2-morpholino-6-oxo-4-(piperidin-3-ylamino)-1,6-dihydropyrimidin-5-yl)benzo[d]thiazole-5-carboxamide] | – | 10 nM |
| N#Cc1ccc2sc(-c3c(N[C@@H]4CCCNC4)nc(N4CCOCC4)[nH]c3=O)nc2c1 [Example 348, 2-[2-(morpholin-4-yl)-6-oxo-4-[[(3R)-piperidin-3-yl]amino]-1,6-dihydropyrimidin-5-yl]-1,3-benzothiazole-5-carbonitrile] | – | 5 nM |
| NCCNc1cccc2sc(-c3c(N[C@@H]4CCCNC4)nc(N4CCOCC4)[nH]c3=O)nc12 [Example 356, 5-[4-[(2-aminoethyl)amino]-1,3-benzothiazol-2-yl]-2-(morpholin-4-yl)-6-[[(3R)-piperidin-3-yl]amino]-3,4-dihydropyrimidin-4-one] | – | 16 nM |

The remaining lines, values ahead:

| IC50 (read-out: IC50) | IC50 [1] | Structure (SMILES) |
| --- | --- | --- |
| 240 nM | – | NC1CCN(c2nc(N[C@@H]3CCCNC3)c(-c3nc4ccccc4s3)c(=O)[nH]2)CC1 [Example 322, 2-(4-aminopiperidin-1-yl)-5-(1,3-benzothiazol-2-yl)-6-[[(3R)-piperidin-3-yl]amino]-3,4-dihydropyrimidin-4-one; trifluoroacetic acid] |
| 100 nM | – | O=C(NC1CCN(c2nc(N[C@@H]3CCCNC3)c(-c3nc4ccccc4s3)c(=O)[nH]2)CC1)OCc1ccccc1 [Example 323, Benzyl N-[1-[5-(1,3-benzothiazol-2-yl)-6-oxo-4-[[(3R)-piperidin-3-yl]amino]-1,6-dihydropyrimidin-2-yl]piperidin-4-yl]carbamate trifluoroacetic acid] |
| 12 nM | – | O=c1[nH]c(N2CCC3(CCN(c4ncccn4)C3)C2)nc(N[C@@H]2CCCNC2)c1-c1nc2ccccc2s1 (stereo partly drawn) [Example 324, 5-(1,3-benzothiazol-2-yl)-6-[[(3R)-piperidin-3-yl]amino]-2-[7-(pyrimidin-2-yl)-2,7-diazaspiro[4.4]nonan-2-yl]-3,4-dihydropyrimidin-4-one trifluoroacetic acid] |
| 27 nM | – | O=c1[nH]c(N2CCC3(CCN(Cc4ccccc4)C3)C2)nc(N[C@@H]2CCCNC2)c1-c1nc2ccccc2s1 (stereo partly drawn) [Example 327, 5-(1,3-benzothiazol-2-yl)-2-[7-benzyl-2,7-diazaspiro[4.4]nonan-2-yl]-6-[[(3R)-piperidin-3-yl]amino]-3,4-dihydropyrimidin-4-one; trifluoroacetic acid] |
| 23 nM | – | O=c1[nH]c(N2CCC3(CCN(S(=O)(=O)c4ccccc4)C3)C2)nc(N[C@@H]2CCCNC2)c1-c1nc2ccccc2s1 (some centres unmarked) [Example 328] |
| 21 nM | – | COc1ccc(N2CCC3(CCN(c4nc(N[C@@H]5CCCNC5)c(-c5nc6ccccc6s5)c(=O)[nH]4)C3)C2)cc1 (stereo partly drawn) [Example 330, 5-(1,3-benzothiazol-2-yl)-2-[7-(4-methoxyphenyl)-2,7-diazaspiro[4.4]nonan-2-yl]-6-[[(3R)-piperidin-3-yl]amino]-3,4-dihydropyrimidin-4-one] |
| 47 nM | – | O=c1[nH]c(N2CCC3(CCN(c4ccc(Cl)cc4)C3)C2)nc(N[C@@H]2CCCNC2)c1-c1nc2ccccc2s1 (stereo partly drawn) [Example 331, 5-(1,3-benzothiazol-2-yl)-2-[7-(4-chlorophenyl)-2,7-diazaspiro[4.4]nonan-2-yl]-6-[[(3R)-piperidin-3-yl]amino]-3,4-dihydropyrimidin-4-one trifluoroacetic acid] |
| 110 nM | – | O=c1[nH]c(N2CCC(NCc3ccccc3)CC2)nc(N[C@@H]2CCCNC2)c1-c1nc2ccccc2s1 [Example 332, 5-(1,3-benzothiazol-2-yl)-2-[4-(benzylamino)piperidin-1-yl]-6-[[(3R)-piperidin-3-yl]amino]-3,4-dihydropyrimidin-4-one trifluoroacetic acid] |
| 21 nM | – | O=c1[nH]c(N2CCC3(CCN(c4ccccc4)C3)C2)nc(N[C@@H]2CCCNC2)c1-c1nc2ccccc2s1 (stereo partly drawn) [Example 334, 5-(1,3-benzothiazol-2-yl)-2-[7-phenyl-2,7-diazaspiro[4.4]nonan-2-yl]-6-[[(3R)-piperidin-3-yl]amino]-3,4-dihydropyrimidin-4-one] |
| – | 180 nM | O=c1[nH]c(N2CCOCC2)nc(N[C@@H]2CCCNC2)c1-c1nc2cccc(Cl)c2s1 [Example 339, (R)-5-(7-chlorobenzo[d]thiazol-2-yl)-2-morpholino-6-(piperidin-3-ylamino)pyrimidin-4(3H)-one] |
| – | 50 nM | Cc1ccc2sc(-c3c(N[C@@H]4CCCNC4)nc(N4CCOCC4)[nH]c3=O)nc2c1 [Example 341, 5-(5-methyl-1,3-benzothiazol-2-yl)-2-(morpholin-4-yl)-6-[[(3R)-piperidin-3-yl]amino]-3,4-dihydropyrimidin-4-one formic acid] |
| – | 8 nM | O=c1[nH]c(N2CCOCC2)nc(N[C@@H]2CCCNC2)c1-c1nc2cc(Cl)ccc2s1 [Example 343, (R)-5-(5-chlorobenzo[d]thiazol-2-yl)-2-morpholino-6-(piperidin-3-ylamino)pyrimidin-4(3H)-one] |
| – | 19 nM | O=c1[nH]c(N2CCOCC2)nc(N[C@@H]2CCCNC2)c1-c1nc2cc(Br)ccc2s1 [Example 345, 5-(5-bromo-1,3-benzothiazol-2-yl)-2-(morpholin-4-yl)-6-[[(3R)-piperidin-3-yl]amino]-3,4-dihydropyrimidin-4-one] |
| – | 20 nM | O=c1[nH]c(N2CCN(c3cccnc3)CC2)nc(N[C@@H]2CCCNC2)c1-c1nc(-c2ccc(F)cc2)cs1 [Example 349, 5-[4-(4-fluorophenyl)-1,3-thiazol-2-yl]-6-[[(3R)-piperidin-3-yl]amino]-2-[4-(pyridin-3-yl)piperazin-1-yl]-3,4-dihydropyrimidin-4-one] |
| 21 nM | – | O=c1[nH]c(N2CCN(c3ncccn3)CC2)nc(N[C@@H]2CCCNC2)c1-c1nc(-c2ccc(F)cc2)cs1 [Example 350, 5-[4-(4-fluorophenyl)-1,3-thiazol-2-yl]-6-[[(3R)-piperidin-3-yl]amino]-2-[4-(pyrimidin-2-yl)piperazin-1-yl]-3,4-dihydropyrimidin-4-one; trifluoroacetic acid] |
